We go through two compounds from patent US20240279205A1, “NOVEL BENZIMIDAZOLE DERIVATIVE” (Carna Biosciences, Inc., priority 2020, published 2024).

Molecules are shown by their SMILES. pIC50: −log10 of the molar value. Where only a bound is given, the exact number is not on record here.

Experiment [1] addresses T1, human STING (hSTING) (Homo sapiens, UniProt Q86WV6).
T1 construct: host or cells: HEK-Blue ISG cells (HEK293-derived SEAP reporter line)
Kind of experiment: Inhibition test of intracellular human STING (hSTING) pathway using SEAP reporter cells (HEK-Blue ISG), stimulation with Compound 3. The format is cell-based. The arrangement: hSTING inhibitory activity: scale not given here. Conditions: Compound 3 10 nM stimulation, 21 hours. An outline of the steps: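 IC50 derived by regressing inhibition rate against log compound concentration (0.1 to 10 μM final, added 1 h before agonist), with 0% and 100% set by wells without and with 10 nM Compound 3. SEAP colour reaction read after 21 h stimulation of HEK-Blue ISG reporter cells.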

The subject of experiment [2] is STING activation (IFN-β production in THP-1 cells). Kind of experiment: Human IFN-β production inhibition test by cGAMP stimulation in THP-1 cells. The format is cell-based. Conditions: Homo sapiens, 2'3'-cGAMP transfection, 18 hours, IFN-β ELISA, read-out: IFN-β bioinhibitory activity. An outline of the steps: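 PMA-primed (100 nM, overnight) THP-1 cells pretreated 1 h with compound at 0.001 to 1 μM (0.1% DMSO), then transfected with 0.12 μg/well 2′3′-cGAMP and cultured 18 hours. Supernatant IFN-β measured by ELISA; IC50 by regression against log concentration, normalised to cGAMP-only (100%) and unstimulated (0%) controls.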
For orientation: In an ELISA, binding on a coated surface is turned into a signal by an enzyme label.

T1 sequence (Q86WV6 whole entry H232R): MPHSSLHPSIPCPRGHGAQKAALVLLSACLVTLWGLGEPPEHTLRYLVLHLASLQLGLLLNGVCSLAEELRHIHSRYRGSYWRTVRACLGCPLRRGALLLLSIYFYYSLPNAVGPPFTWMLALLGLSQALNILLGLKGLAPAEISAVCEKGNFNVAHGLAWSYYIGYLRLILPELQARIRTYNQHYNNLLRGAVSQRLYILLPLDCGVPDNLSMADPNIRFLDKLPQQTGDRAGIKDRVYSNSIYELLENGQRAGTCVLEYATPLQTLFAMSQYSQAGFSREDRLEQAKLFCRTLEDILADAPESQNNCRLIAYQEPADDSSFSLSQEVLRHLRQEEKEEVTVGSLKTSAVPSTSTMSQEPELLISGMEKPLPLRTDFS

For the compound `Cn1c(Nc2c[nH]c3ncc(Cl)cc23)nc2ccc(Oc3ccccc3)cc21` [Embodiment 108, N-(5-Chloro-1H-pyrrolo[2,3-b]pyridin-3-yl)-1-methyl-6-phenoxy-1H-benzo[d]imidazol-2-amine], the hSTING inhibitory activity result in experiment [1] was “* *”. In addition, in experiment [2], the pIC50 is at most 6.00.
The corresponding values for `C=Cc1ccc2[nH]cc(Nc3nc4ccc(Oc5ccc(F)cc5)cc4n3C3CC3)c2n1` [Embodiment 188, 1-Cyclopropyl-6-(4-fluorophenoxy)-N-(5-vinyl-1H-pyrrolo[3,2-b]pyridin-3-yl)-1H-benzo[d]imidazole-2-amine] are “* *” and 6.00 to 7.00.
